Assay results from US6593365B1, “Diflunisal esters and related compounds” (The University of Queensland, priority 1997, dated 2003).
Like-named read-outs stand apart in the source and are kept apart here. Marks after values point to notes of the source that are not given here. Each block holds one compound with its values, some of them ahead of it.

Legend:
[1] = tested on: human platelet rich plasma; assay: Platelet aggregation induced by arachidonic acid; assay type: cell-based; details: compound 600 µM, 37° C., arachidonic acid 200 µM
Method in brief: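 Citrated human PRP ([…]) preincubated with compound 3–45 min at 37 °C under stirring, then challenged with 200 µM arachidonic acid (final). Aggregation quantified as area under the turbidimetric curve; non-responding samples given 20 µM ADP to verify platelet viability.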

[2] = tested on: in-situ perfused rat liver; assay: In-situ rat liver perfusions, hepatic availability (Example 2); assay type: in vitro ADME; details: 30 mL/min, bolus
Experimental: The hepatic availability (Fhepatic) for the O-acyl esters of the salicylic acid and diflunisal was determined using a once through in-situ perfused rat liver preparation (Mellick et al, Unpublished Results).
Protein-free Krebs-Henseleit buffer was perfused at 30 mL/min for aspiring analogues and 2% BSA in Krebs-Henseleit buffer for diflunisal esters (since the solubilities of these latter compounds in protein-free media were very low (Hung et al, supra), 2% BSA were used to increase their solubilities). Briefly, 50 μL aliquots of a saturated solution of the particular O-acyl salicylic acid or diflunisal in Krebs-Henseleit buffer (or with 2% BSA) was injected into the liver with perfusate outflow samples collected via a fraction collector over three minutes. Aliquots (100 μL) from the outflow samples were assayed by HPLC to determine the residual concentration of presented ester and the quantity of phenolic metabolite (salicylic acid or diflunisal) issuing from the perfused liver. The HPLC assay was a modification of the method used by Mellick & Roberts 1996 (Mellick et al, 1996, unpublished results).
The hepatic availability (F) was determined from the outflow concentration versus time profiles for the esters using equation 1, with the assistance of the Moments Calculator 2.2 program for Macintosh computer developed by Robert Purves.
where Q is the perfusate flow rate and D is the dose of aspirin analogues or diflunisal esters administered. The area under the concentration-time curve (AUC) was estimated by the trapezoidal rule integration with appropriate modification for tail (Mellick et al, supra).

[3] = tested on: superoxide generated from xanthine oxidase plus xanthine reaction; assay: Xanthine oxidase plus xanthine-induced chemiluminescence; assay type: biochemical; parameters: dose or concentration left out as unconfirmed; details: X: CL induced by xanthine oxidase plus xanthine
Experimental: To clarify the role of aspirin analogues and diflunisal esters in free radicals scavenging, the Fenton's reagent was replaced by an artificial superoxide generating system in the CL inhibition studies. This cell-free system consisted of 100 μg/mL of xanthine oxidase (Sigma) plus 0.5 μM xanthine (Sigma) (Rosen and Klebanoff, 1976, J Clin Invest 58 50-60; Cheson et al., 1976, J Clin Invest 58 789-796).
CL measurements were always done in triplicate and Student's t-test used to assess the statistical significance of the difference between measurements.

[4] = tested on: ischaemic/reperfusion rat livers; assay: Ischaemic/reperfusion injury in rat livers (LDH release, bile production); parameters: species or system Female Sprague-Dawley rats; details: for EC50: Rattus norvegicus
Experimental: Female Sprague-Dawley rats (220-250 g) were anaesthetised by interperitoneal injection of pentobarbital sodium (60 mg/kg, Boehringer Ingelhein). […] The bile duct was cannulated with a polyethylene tubing (PE-10, I.D. 0.28 mm; Clay Adams, New Jersey) and bile was collected into pre-weighed microcentrifuge tubes at 70 min intervals (in the middle of experiment and the end of experiment). The portal vein was then cannulated using a 16 G intravenous catheter and the liver was perfused via this cannula with 2% BSA Krebs-Henseleit bicarbonate buffer (pH 7.4) and oxygenated using a membrane oxygenator comprising of silastic tubing and ventilated with carbogen (95% O2/5% CO2). The perfusion system used was recirculating and employed a peristaltic pump (Cole-Parmer, Illinois).
Following a 10 min pre-ischaemia perfusion, the perfusion flow was stopped for 30 min at 37° C. with the liver being kept moist. At the end of this ischaemic phase, a known concentration of the aspirin analogue or diflunisal ester's solution (in 2% BSA Krebs-Henseleit buffer) was added into the perfusate prior to the perfusion being resumed for another 100 min. Outflow fractions were collected up to 140 min. A biochemistry autoanalyzer (Hitachi, model 747; Tokyo, Japan) was employed to determine the level of enzyme (LDH) release.
The degree of ischaemic/reperfusion injury was measured by calculating the area under the LDH release ([…]) versus time curve (AUC). […] The efficacy of each compound is expressed in terms of ED50 which represents the molar dose for 50% reduction of LDH release compared to the control. The comparison of bile production between the first stage of experiment (the first 70 min) and the second stage of experiment (the last 70 min) is also used as index of liver function during an experiment.

[5] = 2% BSA in Krebs-Henseleit buffer as perfusate
[6] = protein-free Krebs-Henseleit buffer as perfusate
[7] = C is the ED50 molar dose, read-out: log 1/C (converted)
[8] = molar dose for 50% reduction of LDH release compared to control, 30 min ischaemia, 100 min reperfusion, read-out: ED50 (the source's name)

- Hepatic availability (F) [2, 5]: 0.21
- CL inhibition (%) [3]: 0.5 ± 0.0%
Compound: CC(=O)Oc1ccc(-c2ccc(F)cc2F)cc1C(=O)O [Compound C2D, acetyldiflunisal]
- Platelet Aggregation (% of control) ([1]; preincubation 3 minutes): 92.3 ± 0.5 % of control
- Platelet Aggregation (% of control) ([1]; preincubation 5 minutes): 67.3 ± 0.9 % of control
- Platelet Aggregation (% of control) ([1]; preincubation 8 minutes): 27.9 ± 1.1 % of control
- Platelet Aggregation (% of control) ([1]; preincubation 10 minutes): 0 % of control
- Platelet Aggregation (% of control) ([1]; preincubation 12 minutes): 0 % of control
- Platelet Aggregation (% of control) ([1]; preincubation 15 minutes): 0 % of control
- Platelet Aggregation (% of control) ([1]; preincubation 20 minutes): 0 % of control
- Platelet Aggregation (% of control) ([1]; preincubation 25 minutes): 0 % of control
- Platelet Aggregation (% of control) ([1]; preincubation 45 minutes): 0 % of control
- log 1/C ([4]; C is the ED50 molar dose): 4.61

- Hepatic availability (F) [2, 5]: 0.34
- CL inhibition (%) [3]: 0.6 ± 0.1%
Compound: CCCC(=O)Oc1ccc(-c2ccc(F)cc2F)cc1C(=O)O [Compound C4D, n-butanoyldiflunisal]
- Platelet Aggregation (% of control) ([1]; preincubation 3 minutes): 96.1 ± 0.3 % of control
- Platelet Aggregation (% of control) ([1]; preincubation 5 minutes): 90.3 ± 2.1 % of control
- Platelet Aggregation (% of control) ([1]; preincubation 8 minutes): 73.9 ± 0.7 % of control
- Platelet Aggregation (% of control) ([1]; preincubation 10 minutes): 57.3 ± 0.1 % of control
- Platelet Aggregation (% of control) ([1]; preincubation 12 minutes): 31.8 ± 0.4 % of control
- Platelet Aggregation (% of control) ([1]; preincubation 15 minutes): 0 % of control
- Platelet Aggregation (% of control) ([1]; preincubation 20 minutes): 0 % of control
- Platelet Aggregation (% of control) ([1]; preincubation 25 minutes): 0 % of control
- Platelet Aggregation (% of control) ([1]; preincubation 45 minutes): 0 % of control
- log 1/C ([4]; C is the ED50 molar dose): 4.67

- Hepatic availability (F) [2, 5]: 0.38
- CL inhibition (%) [3]: 0.8 ± 0.0%
Compound: CCCCC(=O)Oc1ccc(-c2ccc(F)cc2F)cc1C(=O)O [Compound C5D, n-pentanoyldiflunisal]
- Platelet Aggregation (% of control) ([1]; preincubation 3 minutes): 97.1 ± 0.1 % of control
- Platelet Aggregation (% of control) ([1]; preincubation 5 minutes): 95.3 ± 0.7 % of control
- Platelet Aggregation (% of control) ([1]; preincubation 8 minutes): 90.6 ± 0.9 % of control
- Platelet Aggregation (% of control) ([1]; preincubation 10 minutes): 87.3 ± 3.1 % of control
- Platelet Aggregation (% of control) ([1]; preincubation 12 minutes): 75.9 ± 0.1 % of control
- Platelet Aggregation (% of control) ([1]; preincubation 15 minutes): 57.5 ± 1.7 % of control
- Platelet Aggregation (% of control) ([1]; preincubation 20 minutes): 0 % of control
- Platelet Aggregation (% of control) ([1]; preincubation 25 minutes): 0 % of control
- Platelet Aggregation (% of control) ([1]; preincubation 45 minutes): 0 % of control
- log 1/C ([4]; C is the ED50 molar dose): 4.77

- Hepatic availability (F) [2, 6]: 0.26
- CL inhibition (%) [3]: 0.3 ± 0.0%
Compound: CCCCC(=O)Oc1ccccc1C(=O)O [Compound C5SA, n-pentanoylsalicylic acid]
- Platelet Aggregation (% of control) ([1]; preincubation 3 minutes): 63.5 ± 1.5 % of control
- Platelet Aggregation (% of control) ([1]; preincubation 5 minutes): 41.3 ± 1.1 % of control
- Platelet Aggregation (% of control) ([1]; preincubation 8 minutes): 0 % of control
- Platelet Aggregation (% of control) ([1]; preincubation 10 minutes): 0 % of control
- Platelet Aggregation (% of control) ([1]; preincubation 12 minutes): 0 % of control
- Platelet Aggregation (% of control) ([1]; preincubation 15 minutes): 0 % of control
- Platelet Aggregation (% of control) ([1]; preincubation 20 minutes): 0 % of control
- Platelet Aggregation (% of control) ([1]; preincubation 25 minutes): 0 % of control
- Platelet Aggregation (% of control) ([1]; preincubation 45 minutes): 0 % of control
- EC50 [4, 7]: 34.7 µM
- EC50 [4, 8]: 34.6 µM

- Hepatic availability (F) [2, 5]: 0.38
- CL inhibition (%) [3]: 0.7 ± 0.1%
Compound: CCCCCC(=O)Oc1ccc(-c2ccc(F)cc2F)cc1C(=O)O [Compound C6D, n-hexanoyldiflunisal]
- Platelet Aggregation (% of control) ([1]; preincubation 3 minutes): 97.2 ± 0.2 % of control
- Platelet Aggregation (% of control) ([1]; preincubation 5 minutes): 94.7 ± 0.3 % of control
- Platelet Aggregation (% of control) ([1]; preincubation 8 minutes): 93.3 ± 0.2 % of control
- Platelet Aggregation (% of control) ([1]; preincubation 10 minutes): 90.1 ± 2.1 % of control
- Platelet Aggregation (% of control) ([1]; preincubation 12 minutes): 89.3 ± 0.1 % of control
- Platelet Aggregation (% of control) ([1]; preincubation 15 minutes): 71.7 ± 1.9 % of control
- Platelet Aggregation (% of control) ([1]; preincubation 20 minutes): 45.6 ± 0.5 % of control
- Platelet Aggregation (% of control) ([1]; preincubation 25 minutes): 0 % of control
- Platelet Aggregation (% of control) ([1]; preincubation 45 minutes): 0 % of control
- log 1/C ([4]; C is the ED50 molar dose): 4.68

The next lines start with the compound.

Compound: CCCC(=O)Oc1ccccc1C(=O)O [Compound C4SA, n-butanoylsalicylic acid]
- Platelet Aggregation (% of control) ([1]; preincubation 3 minutes): 29.5 ± 1.5^d % of control
- Platelet Aggregation (% of control) ([1]; preincubation 5 minutes): 0 % of control
- Platelet Aggregation (% of control) ([1]; preincubation 8 minutes): 0 % of control
- Platelet Aggregation (% of control) ([1]; preincubation 10 minutes): 0 % of control
- Platelet Aggregation (% of control) ([1]; preincubation 12 minutes): 0 % of control
- Platelet Aggregation (% of control) ([1]; preincubation 15 minutes): 0 % of control
- Platelet Aggregation (% of control) ([1]; preincubation 20 minutes): 0 % of control
- Platelet Aggregation (% of control) ([1]; preincubation 25 minutes): 0 % of control
- Platelet Aggregation (% of control) ([1]; preincubation 45 minutes): 0 % of control
- Hepatic availability (F) [2, 6]: 0.40
- CL inhibition (%) [3]: 0.3 ± 0.1%
- EC50 [4, 7]: 49 µM
- EC50 [4, 8]: 48.8 µM

Compound: CCCCCC(=O)Oc1ccccc1C(=O)O [Compound C6SA, n-hexanoylsalicylic acid]
- Platelet Aggregation (% of control) ([1]; preincubation 3 minutes): 90.1 ± 2.2 % of control
- Platelet Aggregation (% of control) ([1]; preincubation 5 minutes): 70.5 ± 3.1 % of control
- Platelet Aggregation (% of control) ([1]; preincubation 8 minutes): 39.9 ± 1.1 % of control
- Platelet Aggregation (% of control) ([1]; preincubation 10 minutes): 0 % of control
- Platelet Aggregation (% of control) ([1]; preincubation 12 minutes): 0 % of control
- Platelet Aggregation (% of control) ([1]; preincubation 15 minutes): 0 % of control
- Platelet Aggregation (% of control) ([1]; preincubation 20 minutes): 0 % of control
- Platelet Aggregation (% of control) ([1]; preincubation 25 minutes): 0 % of control
- Platelet Aggregation (% of control) ([1]; preincubation 45 minutes): 0 % of control
- Hepatic availability (F) [2, 6]: 0.02
- CL inhibition (%) [3]: 0.2 ± 0.0%
- EC50 [4, 7]: 28.8 µM
- EC50 [4, 8]: 29.1 µM

Compound: O=C(O)c1cc(-c2ccc(F)cc2F)ccc1O [DF, 2′,4′-difluoro-4-hydroxy-3-biphenylcarboxylic acid, reference compound]
- CL inhibition (%) [3]: 0.4 ± 0.1%
- EC50 [4, 7]: 25.1 µM
- EC50 [4, 8]: 25.2 µM

Compound: O-acetylsalicylic acid [Compound C2SA, reference compound]
- Platelet Aggregation (% of control) ([1]; preincubation 3 minutes): 0 % of control
- Platelet Aggregation (% of control) ([1]; preincubation 5 minutes): 0 % of control
- Platelet Aggregation (% of control) ([1]; preincubation 8 minutes): 0 % of control
- Platelet Aggregation (% of control) ([1]; preincubation 10 minutes): 0 % of control
- Platelet Aggregation (% of control) ([1]; preincubation 12 minutes): 0 % of control
- Platelet Aggregation (% of control) ([1]; preincubation 15 minutes): 0 % of control
- Platelet Aggregation (% of control) ([1]; preincubation 20 minutes): 0 % of control
- Platelet Aggregation (% of control) ([1]; preincubation 25 minutes): 0 % of control
- Platelet Aggregation (% of control) ([1]; preincubation 45 minutes): 0 % of control
- Hepatic availability (F) [2, 6]: 0.85
- CL inhibition (%) [3]: 0.4 ± 0.1%
